Test results reported in ChEMBL document CHEMBL3758072, “Amphiphilic nanoparticles of resveratrol-norcantharidin to enhance the toxicity in zebrafish embryo” (Bioorg Med Chem Lett, 2016).
Calls of active or inactive are those of the source. The rule behind the calls is not given here.

Key:
[1] = organism: Danio rerio; assay: Cytotoxicity in zebrafish embryo assessed as survival rate at 50 ppm after 80 mins relative to control; assay type: functional
[2] = test system: Escherichia coli; assay: Antibacterial activity against Escherichia coli assessed as inhibition of microbial growth; assay type: functional, organism-based
[3] = organism: Danio rerio; assay: Cytotoxicity in zebrafish embryo assessed as survival rate at 10 ppm after 80 mins relative to control; assay type: functional
[4] = organism: Danio rerio; assay: Cytotoxicity in zebrafish embryo assessed as survival rate at 25 ppm after 80 mins relative to control; assay type: functional
[5] = Drug accumulation in zebrafish embryo skin at 10 ppm incubated for 80 mins; assay type: ADME, Danio rerio, Zone of skin; settings: in vivo
[6] = Drug accumulation in zebrafish embryo stomach at 10 ppm incubated for 80 mins; assay type: ADME, tissue-based, Danio rerio; settings: in vivo
[7] = Drug accumulation in zebrafish embryo intestinal villi at 10 ppm incubated for 80 mins; assay type: ADME, Danio rerio; settings: in vivo
[8] = Drug accumulation in zebrafish embryo muscle at 10 ppm incubated for 80 mins; assay type: ADME, Danio rerio, Muscle tissue; settings: in vivo

Row | SMILES | Survival [1] [%] | growth inhibition (GI) [2] | Survival [3] [%] | Survival [4] [%] | Drug uptake [5] | Drug uptake [6] | Drug uptake [7] | Drug uptake [8]
1 | O=C1OC(=O)C2C3CCC(O3)C12 (stereo unspecified) [DEMETHYL-CANTHARIDIN] | 90.8 | inactive | 99.2 | 96.7 | – | – | – | –
2 | COC(=O)[C@H]1[C@@H](C(=O)Oc2ccc(/C=C/c3cc(O)cc(O)c3)cc2)[C@@H]2CC[C@H]1O2 | 95.8 | – | 99.2 | 99.2 | – | – | – | –
3 | CCN(CC)c1ccc2c(-c3ccccc3C(=O)NCCNC(=O)[C@@H]3[C@H](C(=O)OC)[C@H]4CC[C@@H]3O4)c3ccc(=[N+](CC)CC)cc-3oc2c1 | – | – | – | – | Not Active | Active | Active | Not Active
